Assay results taken from patent US12187723B2 (BRISTOL-MYERS SQUIBB COMPANY, priority 2019, dated 2025).
pIC50: −log10 of the molar value.

How the values were obtained:
[1] = target: T1, human TLR8 (Homo sapiens, UniProt Q9NR97); assay: TLR8 inhibition reporter assay (HEK-Blue SEAP); type: cell-based; conditions: HEK-Blue cells overexpressing human TLR8, R848 15.9 μM, 22 hour incubation
T1 construct: host or cells: HEK-Blue cells
T1 sequence (Q9NR97 27-1041): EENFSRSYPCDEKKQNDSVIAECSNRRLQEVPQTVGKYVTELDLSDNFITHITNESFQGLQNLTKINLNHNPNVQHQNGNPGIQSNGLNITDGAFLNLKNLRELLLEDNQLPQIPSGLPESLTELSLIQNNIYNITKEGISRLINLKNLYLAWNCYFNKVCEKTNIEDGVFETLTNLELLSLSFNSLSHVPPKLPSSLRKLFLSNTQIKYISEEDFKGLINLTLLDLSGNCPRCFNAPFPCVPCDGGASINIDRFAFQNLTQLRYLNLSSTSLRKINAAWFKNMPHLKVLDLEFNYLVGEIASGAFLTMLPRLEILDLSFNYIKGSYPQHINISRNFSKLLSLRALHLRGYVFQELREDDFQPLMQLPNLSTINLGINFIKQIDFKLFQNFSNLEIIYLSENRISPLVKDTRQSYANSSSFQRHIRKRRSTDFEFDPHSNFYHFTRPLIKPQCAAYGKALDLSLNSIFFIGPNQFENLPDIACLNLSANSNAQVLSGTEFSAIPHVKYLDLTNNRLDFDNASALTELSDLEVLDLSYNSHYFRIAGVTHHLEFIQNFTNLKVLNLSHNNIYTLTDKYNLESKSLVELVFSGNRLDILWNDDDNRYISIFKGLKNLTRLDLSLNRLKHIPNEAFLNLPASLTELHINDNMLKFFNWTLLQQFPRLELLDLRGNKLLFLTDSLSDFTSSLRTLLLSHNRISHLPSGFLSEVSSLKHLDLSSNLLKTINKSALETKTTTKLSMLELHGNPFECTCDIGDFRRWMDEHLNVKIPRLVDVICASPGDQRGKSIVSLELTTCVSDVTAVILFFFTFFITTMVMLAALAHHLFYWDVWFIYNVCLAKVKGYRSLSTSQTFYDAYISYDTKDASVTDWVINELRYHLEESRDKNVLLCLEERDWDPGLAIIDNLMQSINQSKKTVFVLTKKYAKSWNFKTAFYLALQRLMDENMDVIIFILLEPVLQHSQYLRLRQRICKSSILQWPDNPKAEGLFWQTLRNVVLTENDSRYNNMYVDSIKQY
In short: (§1)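 Human TLR7/8/9 HEK-Blue reporter lines; dose range 0.05 nM–50 μM; 30 min RT preincubation; stimulus gardiquimod 7.5 μM / R848 15.9 μM / ODN2006 5 nM respectively; 22 h, 37 °C; SEAP detected colorimetrically.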

[2] = target: T2, human TLR9 (Homo sapiens, UniProt Q9NR96); assay: TLR9 inhibition reporter assay (HEK-Blue SEAP); type: cell-based; conditions: HEK-Blue cells overexpressing human TLR9, ODN2006 5 nM, 22 hour incubation
T2 construct: host or cells: HEK-Blue cells
T2 sequence (Q9NR96 26-1032): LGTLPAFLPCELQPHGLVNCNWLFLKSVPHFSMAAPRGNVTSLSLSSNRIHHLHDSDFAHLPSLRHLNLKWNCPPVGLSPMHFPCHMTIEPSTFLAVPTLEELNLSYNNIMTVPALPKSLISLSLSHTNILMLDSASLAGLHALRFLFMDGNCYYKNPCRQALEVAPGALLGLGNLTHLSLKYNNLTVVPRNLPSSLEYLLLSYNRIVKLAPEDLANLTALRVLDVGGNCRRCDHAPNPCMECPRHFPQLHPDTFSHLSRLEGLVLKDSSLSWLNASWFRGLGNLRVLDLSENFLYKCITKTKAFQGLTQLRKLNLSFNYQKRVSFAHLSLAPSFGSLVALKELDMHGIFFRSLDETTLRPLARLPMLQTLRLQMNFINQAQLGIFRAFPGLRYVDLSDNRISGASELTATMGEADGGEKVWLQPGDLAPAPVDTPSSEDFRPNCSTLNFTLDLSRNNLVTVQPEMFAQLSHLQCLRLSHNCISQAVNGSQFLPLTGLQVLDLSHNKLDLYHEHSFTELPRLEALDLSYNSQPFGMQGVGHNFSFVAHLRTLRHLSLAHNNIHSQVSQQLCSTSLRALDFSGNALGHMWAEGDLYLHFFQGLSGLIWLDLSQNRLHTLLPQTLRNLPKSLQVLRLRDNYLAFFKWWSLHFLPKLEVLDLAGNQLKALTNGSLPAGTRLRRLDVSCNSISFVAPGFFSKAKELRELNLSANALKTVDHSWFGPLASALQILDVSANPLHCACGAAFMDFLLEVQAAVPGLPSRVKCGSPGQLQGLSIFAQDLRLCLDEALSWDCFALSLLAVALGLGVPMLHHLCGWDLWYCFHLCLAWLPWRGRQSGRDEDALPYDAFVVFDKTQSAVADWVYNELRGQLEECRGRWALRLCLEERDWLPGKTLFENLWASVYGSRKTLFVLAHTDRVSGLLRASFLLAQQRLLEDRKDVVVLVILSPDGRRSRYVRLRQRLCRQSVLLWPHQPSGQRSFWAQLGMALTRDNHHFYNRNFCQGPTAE
In short: as §1

Row | pIC50 [1] | pIC50 [2] | SMILES
1 | 8.17 | 5.80 | CCN[C@H]1CC[C@H](n2c(=O)[nH]c3cc(-c4cc(C)c5ncnn5c4)c(C)cc32)CC1 [Example 24, 1-((1r,4s)-4-(ethylamino)cyclohexyl)-6-methyl-5-(8-methyl-[1,2,4]triazolo[1,5-a]pyridin-6-yl)-1,3-dihydro-2H-benzo[d]imidazol-2-one]
2 | 7.95 | 5.36 | Cc1cc2c(cc1-c1cc(C)c3ncnn3c1)[nH]c(=O)n2[C@H]1CC[C@H](NC(C)C)CC1 [Example 25, 1-((1r,4s)-4-(isopropylamino)cyclohexyl)-6-methyl-5-(8-methyl-[1,2,4]triazolo[1,5-a]pyridin-6-yl)-1,3-dihydro-2H-benzo[d]imidazol-2-one]
3 | 6.42 | 5.17 | Cc1cc2c(cc1-c1cc(C)c3ncnn3c1)[nH]c(=O)n2[C@@H]1CCCN(CC(C)(C)C)C1 [Example 26, (R)-6-methyl-5-(8-methyl-[1,2,4]triazolo[1,5-a]pyridin-6-yl)-1-(1-neopentylpiperidin-3-yl)-1,3-dihydro-2H-benzo[d]imidazol-2-one]
4 | 7.30 | 5.07 | Cc1cc2c(cc1-c1cc(C)c3ncnn3c1)[nH]c(=O)n2[C@@H]1CCCN(C2CCOCC2)C1 [Example 27, (R)-6-methyl-5-(8-methyl-[1,2,4]triazolo[1,5-a]pyridin-6-yl)-1-(1-(tetrahydro-2H-pyran-4-yl)piperidin-3-yl)-1,3-dihydro-2H-benzo[d]imidazol-2-one]
5 | 7.65 | 4.97 | CCC(C)N1CCC[C@@H](n2c(=O)[nH]c3cc(-c4cc(C)c5ncnn5c4)c(C)cc32)C1 (stereo partly drawn) [Example 28, 1-((3R)-1-(sec-butyl)piperidin-3-yl)-6-methyl-5-(8-methyl-[1,2,4]triazolo[1,5-a]pyridin-6-yl)-1,3-dihydro-2H-benzo[d]imidazol-2-one]
6 | 7.31 | < 4.30 | Cc1cc2c(cc1-c1cc(C)c3ncnn3c1)[nH]c(=O)n2[C@@H]1CCCN(CCC(F)(F)F)C1 [Example 29, (R)-6-methyl-5-(8-methyl-[1,2,4]triazolo[1,5-a]pyridin-6-yl)-1-(1-(3,3,3-trifluoropropyl)piperidin-3-yl)-1,3-dihydro-2H-benzo[d]imidazol-2-one]
7 | 8.51 | 5.35 | Cc1cc2c(cc1-c1cc(C)c3ncnn3c1)[nH]c(=O)n2[C@H]1CC[C@@H](NC2CCOCC2)CC1 [Example 30, 6-methyl-5-(8-methyl-[1,2,4]triazolo[1,5-a]pyridin-6-yl)-1-((1s,4s)-4-((tetrahydro-2H-pyran-4-yl)amino)cyclohexyl)-1,3-dihydro-2H-benzo[d]imidazol-2-one]
8 | 8.88 | 5.53 | Cc1cc2c(cc1-c1cc(C)c3ncnn3c1)[nH]c(=O)n2[C@H]1CC[C@@H](NCCC(F)(F)F)CC1 [Example 31]
9 | 9.44 | 5.14 | COc1cc(-c2cc3[nH]c(=O)n(C4CCC(N5CCSCC5)CC4)c3cc2C(C)C)cn2ncnc12 (centres unmarked) [Example 250, 6-isopropyl-5-(8-methoxy-[1,2,4]triazolo[1,5-a]pyridin-6-yl)-1-(4-thiomorpholinocyclohexyl)-1,3-dihydro-2H-benzo[d]imidazol-2-one]
10 | 9.02 | 4.93 | COc1cc(-c2cc3[nH]c(=O)n(C4CCC(N5CCSCC5)CC4)c3cc2C(C)C)cn2ncnc12 (centres unmarked) [Example 251, 6-isopropyl-5-(8-methoxy-[1,2,4]triazolo[1,5-a]pyridin-6-yl)-1-(4-thiomorpholinocyclohexyl)-1,3-dihydro-2H-benzo[d]imidazol-2-one]
11 | 8.47 | 4.85 | COc1cc(-c2cc3[nH]c(=O)n(C4CCC(N5CC6(COC6)C5)CC4)c3cc2C(C)C)cn2ncnc12 (centres unmarked) [Example 254, 1-(4-(2-oxa-6-azaspiro[3.3]heptan-6-yl)cyclohexyl)-6-isopropyl-5-(8-methoxy-[1,2,4]triazolo[1,5-a]pyridin-6-yl)-1,3-dihydro-2H-benzo[d]imidazol-2-one]
12 | 8.86 | 4.63 | COCCNC1CCC(n2c(=O)[nH]c3cc(-c4cn5ncnc5c(OC)c4C)c(C(C)C)cc32)CC1 (centres unmarked) [Example 257]
13 | 9.22 | 4.61 | COCCNC1CCC(n2c(=O)[nH]c3cc(-c4cn5ncnc5c(OC)c4C)c(C(C)C)cc32)CC1 (centres unmarked) [Example 258]
14 | 8.57 | 4.72 | COc1c(C)c(-c2cc3[nH]c(=O)n(C4CCC(N5CC(OC)C5)CC4)c3cc2C(C)C)cn2ncnc12 (centres unmarked) [Example 265, 6-isopropyl-5-(8-methoxy-7-methyl-[1,2,4]triazolo[1,5-a]pyridin-6-yl)-1-(4-(3-methoxyazetidin-1-yl)cyclohexyl)-1,3-dihydro-2H-benzo[d]imidazol-2-one]
15 | 8.35 | 4.64 | COc1c(C)c(-c2cc3[nH]c(=O)n(C4CCC(N5CC(OC)C5)CC4)c3cc2C(C)C)cn2ncnc12 (centres unmarked) [Example 266, 6-isopropyl-5-(8-methoxy-7-methyl-[1,2,4]triazolo[1,5-a]pyridin-6-yl)-1-(4-(3-methoxyazetidin-1-yl)cyclohexyl)-1,3-dihydro-2H-benzo[d]imidazol-2-one]
16 | 9.44 | 5.09 | Cc1c(-c2cc3[nH]c(=O)n(C4CCC(N5CCCOCC5)CC4)c3cc2C(C)C)cn2ncnc2c1C (centres unmarked) [Example 271, 1-(4-(1,4-oxazepan-4-yl)cyclohexyl)-5-(7,8-dimethyl-[1,2,4]triazolo[1,5-a]pyridin-6-yl)-6-isopropyl-1,3-dihydro-2H-benzo[d]imidazol-2-one]
17 | 9.31 | 5.17 | Cc1c(-c2cc3[nH]c(=O)n(C4CCC(N5CCCOCC5)CC4)c3cc2C(C)C)cn2ncnc2c1C (centres unmarked) [Example 272, 1-(4-(1,4-oxazepan-4-yl)cyclohexyl)-5-(7,8-dimethyl-[1,2,4]triazolo[1,5-a]pyridin-6-yl)-6-isopropyl-1,3-dihydro-2H-benzo[d]imidazol-2-one]
18 | 9.06 | 4.87 | Cc1c(-c2cc3[nH]c(=O)n(C4CCC(N5CCCC(F)C5)CC4)c3cc2C(C)C)cn2ncnc2c1C (centres unmarked) [Example 273, 5-(7,8-dimethyl-[1,2,4]triazolo[1,5-a]pyridin-6-yl)-1-(4-(3-fluoropiperidin-1-yl)cyclohexyl)-6-isopropyl-1,3-dihydro-2H-benzo[d]imidazol-2-one]
19 | 8.96 | 4.77 | Cc1c(-c2cc3[nH]c(=O)n(C4CCC(N5CCCC(F)C5)CC4)c3cc2C(C)C)cn2ncnc2c1C (centres unmarked) [Example 274, 5-(7,8-dimethyl-[1,2,4]triazolo[1,5-a]pyridin-6-yl)-1-(4-(3-fluoropiperidin-1-yl)cyclohexyl)-6-isopropyl-1,3-dihydro-2H-benzo[d]imidazol-2-one]
